Results taken from patent US10131744B2, “Antimicrobial polyamide compositions and mastitis treatment” (priority 2013, dated 2018).
≈ marks a conversion by molar mass, not a printed value. Like-named read-outs stand apart in the source and are kept apart here.

Legend:
[1] = test system: S. pneumoniae (Str-53) ATCC 49619; assay: MIC in broth against S. pneumoniae; assay type: cell-based; conditions: Streptococcus pneumoniae, ATCC49619
Experimental: (§1) The antimicrobial efficacy of twenty-five antimicrobial polymers (and Erythromycin) was evaluated using an MIC assay. […] Overall, the antimicrobial polymer-containing compositions performed comparably well, or better, against the pathogens, as compared to Erythromycin (ERY).

Moraxella bovis = assay: MIC in broth against Moraxella bovis; assay type: cell-based
Experimental: (§2) The antimicrobial efficacy of twenty-five antimicrobial polymers (and Erythromycin) was evaluated using an MIC assay. For each study, a doubling dilution concentration of each antimicrobial polymer was prepared at 2× the final concentration range (0.12 to 16 μg/mL), and 100 μL of the API-null formulation was dispensed into the negative control wells. Overall, the antimicrobial polymer-containing compositions performed comparably well, or better, against the pathogens, as compared to Erythromycin (ERY).

[2] = test system: E. faecalis (Str-15) ATCC 29212; assay: MIC in broth against E. faecalis; assay type: cell-based; conditions: Enterococcus faecalis, ATCC29212
Experimental: as §1

[3] = test system: Staphylococcus aureus (including MRSA); assay: MIC in broth against Staphylococcus aureus (including MRSA); assay type: cell-based; parameters: MIC against Staphylococcus aureus including MRSA: unit: μg/mL
Experimental: as §2

[4] = test system: Staphylococcus pseudintermedius (including MRSP); assay: MIC in broth against Staphylococcus pseudintermedius (including MRSP); assay type: cell-based; parameters: unit not given beside the values
Experimental: as §2

Histophilus somni = assay: MIC in broth against Histophilus somni; assay type: cell-based
Experimental: as §2

Klebsiella species = assay: MIC in broth against Klebsiella species; assay type: cell-based
Experimental: as §2

Streptococcus agalactiae = assay: MIC in broth against Streptococcus agalactiae; assay type: cell-based; parameters: unit not given beside the values
Experimental: as §2

[5] = test system: Coagulase negative Staphylococcus species; assay: MIC in broth against coagulase negative Staphylococcus species; assay type: cell-based
Experimental: as §2

Escherichia coli = assay: MIC in broth against Escherichia coli; assay type: cell-based
Experimental: as §2

[6] = test system: S. pneumoniae (Str-53) ATCC 49619; conditions: cited from earlier work

For `CC[C@H]1OC(=O)[C@H](C)[C@@H](O[C@H]2C[C@@](C)(OC)[C@@H](O)[C@H](C)O2)[C@H](C)[C@@H](O[C@@H]2O[C@H](C)C[C@H](N(C)C)[C@H]2O)[C@](C)(O)C[C@@H](C)C(=O)[C@H](C)[C@@H](O)[C@]1(C)O` [Ery, Erythromycin], the MIC [1] was 0.06 µg/mL (≈ 0.0818 µM), the MIC (Moraxella bovis; isolate # 88) was 0.3 µg/mL (≈ 0.409 µM) and the MIC (Moraxella bovis; isolate # 89) was 0.5 µg/mL (≈ 0.681 µM). The MIC (Moraxella bovis; isolate # 90) was 0.5 µg/mL (≈ 0.681 µM), the MIC (Moraxella bovis; isolate # 91) was 1 µg/mL (≈ 1.36 µM) and the MIC (Moraxella bovis; isolate # 92) was 0.5 µg/mL (≈ 0.681 µM). For the same molecule, the MIC (Moraxella bovis; isolate # 93) was 0.3 µg/mL (≈ 0.409 µM), the MIC (Moraxella bovis; isolate # 94) was 0.5 µg/mL (≈ 0.681 µM) and the MIC (Moraxella bovis; isolate # 95) was 0.5 µg/mL (≈ 0.681 µM). The MIC (Moraxella bovis; isolate # 96) was 0.5 µg/mL (≈ 0.681 µM), the MIC (Moraxella bovis; isolate # 97) was 0.5 µg/mL (≈ 0.681 µM) and the MIC [2] was 2 µg/mL (≈ 2.73 µM). The MIC ([3]; Staphylococcus aureus, ATCC 29213 / MRSA, S. aureus (Sta-3) ATCC 29213) was 0.5 µg/mL (≈ 0.681 µM), the “MIC against Staphylococcus aureus including MRSA” value ([3]; strain # 98) was 0.25 and the “MIC against Staphylococcus aureus including MRSA” value ([3]; strain # 99) was 0.25. The “MIC against Staphylococcus aureus including MRSA” value ([3]; strain # 100) was 0.25, the “MIC against Staphylococcus aureus including MRSA” value ([3]; strain # 101) was 0.25 and the “MIC against Staphylococcus aureus including MRSA” value ([3]; strain # 102) was 0.25. For the same molecule, the “MIC against Staphylococcus aureus including MRSA” value ([3]; strain # 103) was 0.25, the “MIC against Staphylococcus aureus including MRSA” value ([3]; strain # 104) was 0.25 and the “MIC against Staphylococcus aureus including MRSA” value ([3]; strain # 105) was 0.25. The “MIC against Staphylococcus aureus including MRSA” value ([3]; strain # 106) was 0.25, the “MIC against Staphylococcus aureus including MRSA” value ([3]; strain # 107) was 0.25 and the “MIC against Staphylococcus aureus including MRSA” value ([3]; strain # 108) was greater than 8. For the same molecule, the “MIC against Staphylococcus aureus including MRSA” value ([3]; strain # 109) was 1, the “MIC against Staphylococcus aureus including MRSA” value ([3]; strain # 110) was greater than 8 and the “MIC against Staphylococcus aureus including MRSA” value ([3]; strain # 111) was greater than 8. The “MIC against Staphylococcus aureus including MRSA” value ([3]; strain # 112) was 0.5, the “MIC against Staphylococcus aureus including MRSA” value ([3]; strain # 113) was greater than 8 and the “MIC against Staphylococcus aureus including MRSA” value ([3]; strain # 114) was greater than 8. The “MIC against Staphylococcus aureus including MRSA” value ([3]; strain # 115) was greater than 8, the “MIC against Staphylococcus aureus including MRSA” value ([3]; strain # 116) was greater than 8 and the “MIC against Staphylococcus aureus including MRSA” value ([3]; strain # 117) was greater than 8. For the same molecule, the “MIC against Staphylococcus aureus including MRSA” value ([3]; strain # 118) was greater than 8, the “MIC against Staphylococcus aureus including MRSA” value ([3]; strain # 119) was greater than 8 and the “MIC against Staphylococcus aureus including MRSA” value ([3]; strain # 120) was greater than 8. For the same molecule, the “MIC against Staphylococcus aureus including MRSA” value ([3]; strain # 121) was greater than 8, the “MIC against Staphylococcus aureus including MRSA” value ([3]; strain # 122) was greater than 8 and the “MIC against Staphylococcus aureus including MRSA” value ([3]; strain # 123) was greater than 8. For the same molecule, the “MIC against Staphylococcus aureus including MRSA” value ([3]; strain # 124) was greater than 8, the “MIC against Staphylococcus aureus including MRSA” value ([3]; strain # 125) was greater than 8 and the “MIC against Staphylococcus aureus including MRSA” value ([3]; strain # 126) was greater than 8. The “MIC against Staphylococcus aureus including MRSA” value ([3]; strain # 127) was greater than 8, the “MIC against Staphylococcus pseudintermedius (+ MSRP)” value (“MIC … (+ MSRP)” for short) ([4]; isolate # 128) was 0.25 and the “MIC … (+ MSRP)” value ([4]; isolate # 129) was 0.25. The “MIC … (+ MSRP)” value ([4]; isolate # 130) was 0.25, the “MIC … (+ MSRP)” value ([4]; isolate # 131) was 0.25 and the “MIC … (+ MSRP)” value ([4]; isolate # 132) was 0.25. For the same molecule, the “MIC … (+ MSRP)” value ([4]; isolate # 133) was 0.25, the “MIC … (+ MSRP)” value ([4]; isolate # 134) was 0.25 and the “MIC … (+ MSRP)” value ([4]; isolate # 135) was 0.12. For the same molecule, the “MIC … (+ MSRP)” value ([4]; isolate # 136) was 0.25, the “MIC … (+ MSRP)” value ([4]; isolate # 137) was 0.12 and the “MIC … (+ MSRP)” value ([4]; isolate # 138) was greater than 8. The “MIC … (+ MSRP)” value ([4]; isolate # 139) was 0.25, the “MIC … (+ MSRP)” value ([4]; isolate # 140) was greater than 8 and the “MIC … (+ MSRP)” value ([4]; isolate # 141) was greater than 8. For the same molecule, the “MIC … (+ MSRP)” value ([4]; isolate # 142) was greater than 8, the “MIC … (+ MSRP)” value ([4]; isolate # 143) was greater than 8 and the “MIC … (+ MSRP)” value ([4]; isolate # 144) was greater than 8. For the same molecule, the “MIC … (+ MSRP)” value ([4]; isolate # 145) was greater than 8, the “MIC … (+ MSRP)” value ([4]; isolate # 146) was greater than 8 and the “MIC … (+ MSRP)” value ([4]; isolate # 147) was greater than 8. For the same molecule, the MIC (Histophilus somni; H. somni (H-15) ATTC 700025, read-out: MIC) was 1 µg/mL (≈ 1.36 µM), the MIC (Histophilus somni; isolates # 238-240, 243, 246 (BRD), read-out: MIC against Histophilus somni) was greater than 8 µg/mL and the MIC (Histophilus somni; isolates # 241, 247 (BRD), read-out: MIC against Histophilus somni) was 0.5 µg/mL (≈ 0.681 µM). For the same molecule, the MIC (Histophilus somni; isolates # 242, 244, 245 (BRD), read-out: MIC against Histophilus somni) was 1 µg/mL (≈ 1.36 µM), the MIC (Klebsiella species; Klebsiella, isolate # 28) was greater than 8 µg/mL and the “MIC against Klebsiella species” value (Klebsiella species; isolate # 29) was greater than 8 µg/mL. For the same molecule, the “MIC against Klebsiella species” value (Klebsiella species; isolate # 30) was greater than 8 µg/mL, the “MIC against Klebsiella species” value (Klebsiella species; isolate # 31) was greater than 8 µg/mL and the “MIC against Klebsiella species” value (Klebsiella species; isolate # 32) was greater than 8 µg/mL. For the same molecule, the “MIC against Klebsiella species” value (Klebsiella species; isolate # 33) was greater than 8 µg/mL, the “MIC against Klebsiella species” value (Klebsiella species; isolate # 34) was greater than 8 µg/mL and the “MIC against Klebsiella species” value (Klebsiella species; isolate # 35) was greater than 8 µg/mL. The “MIC against Klebsiella species” value (Klebsiella species; isolate # 36) was greater than 8 µg/mL, the “MIC against Klebsiella species” value (Klebsiella species; isolate # 37) was greater than 8 µg/mL and the “MIC against Klebsiella species” value (Klebsiella species; isolate # 38) was greater than 8 µg/mL. The “MIC against Klebsiella species” value (Klebsiella species; isolate # 39) was greater than 8 µg/mL, the “MIC against Klebsiella species” value (Klebsiella species; isolate # 40) was greater than 8 µg/mL and the “MIC against Klebsiella species” value (Klebsiella species; isolate # 41) was greater than 8 µg/mL. For the same molecule, the “MIC against Klebsiella species” value (Klebsiella species; isolate # 42) was greater than 8 µg/mL, the “MIC against Klebsiella species” value (Klebsiella species; isolate # 43) was greater than 8 µg/mL and the “MIC against Klebsiella species” value (Klebsiella species; isolate # 44) was greater than 8 µg/mL. For the same molecule, the “MIC against Klebsiella species” value (Klebsiella species; isolate # 45) was greater than 8 µg/mL, the “MIC against Klebsiella species” value (Klebsiella species; isolate # 46) was greater than 8 µg/mL and the “MIC against Klebsiella species” value (Klebsiella species; isolate # 47) was greater than 8 µg/mL. The “MIC against Streptococcus agalactiae” value (Streptococcus agalactiae; isolate # 188) was 0.03, the “MIC against Streptococcus agalactiae” value (Streptococcus agalactiae; isolate # 189) was 0.06 and the “MIC against Streptococcus agalactiae” value (Streptococcus agalactiae; isolate # 190) was 0.03. For the same molecule, the “MIC against Streptococcus agalactiae” value (Streptococcus agalactiae; isolate # 191) was 0.03, the “MIC against Streptococcus agalactiae” value (Streptococcus agalactiae; isolate # 192) was 0.06 and the “MIC against Streptococcus agalactiae” value (Streptococcus agalactiae; isolate # 193) was 0.06. For the same molecule, the “MIC against Streptococcus agalactiae” value (Streptococcus agalactiae; isolate # 194) was 0.03, the “MIC against Streptococcus agalactiae” value (Streptococcus agalactiae; isolate # 195) was 0.03 and the “MIC against Streptococcus agalactiae” value (Streptococcus agalactiae; isolate # 196) was 0.03. For the same molecule, the “MIC against Streptococcus agalactiae” value (Streptococcus agalactiae; isolate # 197) was 0.03, the MIC ([5]; isolate # 148) was 0.12 µg/mL (≈ 0.164 µM) and the MIC ([5]; isolate # 149) was 0.12 µg/mL (≈ 0.164 µM). The MIC ([5]; isolate # 150) was 0.25 µg/mL (≈ 0.341 µM), the MIC ([5]; isolate # 151) was 0.25 µg/mL (≈ 0.341 µM) and the MIC ([5]; isolate # 152) was 0.25 µg/mL (≈ 0.341 µM). For the same molecule, the MIC ([5]; isolate # 153) was 0.5 µg/mL (≈ 0.681 µM), the MIC ([5]; isolate # 154) was 0.5 µg/mL (≈ 0.681 µM) and the MIC ([5]; isolate # 155) was 0.25 µg/mL (≈ 0.341 µM). It also gave an MIC ([5]; isolate # 156) of 0.25 µg/mL (≈ 0.341 µM), an MIC ([5]; isolate # 157) of 0.12 µg/mL (≈ 0.164 µM) and an MIC (Escherichia coli; isolate # 1 (mastitis)) of 2 µg/mL (≈ 2.73 µM). The MIC (Escherichia coli; isolate # 2 (mastitis)) was greater than 8 µg/mL, the MIC (Escherichia coli; isolate # 3 (mastitis)) was greater than 8 µg/mL and the MIC (Escherichia coli; isolate # 4 (mastitis)) was greater than 8 µg/mL. It also gave an MIC (Escherichia coli; isolate # 5 (mastitis)) greater than 8 µg/mL, an MIC (Escherichia coli; isolate # 6 (mastitis)) greater than 8 µg/mL and an MIC (Escherichia coli; isolate # 7 (mastitis)) greater than 8 µg/mL. For the same molecule, the MIC (Escherichia coli; isolate # 8 (mastitis)) was greater than 8 µg/mL, the MIC (Escherichia coli; isolate # 9 (mastitis)) was greater than 8 µg/mL and the MIC (Escherichia coli; isolate # 10 (mastitis)) was greater than 8 µg/mL. It also gave an MIC (Escherichia coli; isolate # 11 (canine wound)) greater than 8 µg/mL, an MIC (Escherichia coli; isolate # 12 (canine wound)) greater than 8 µg/mL and an MIC (Escherichia coli; isolate # 13 (canine wound)) greater than 8 µg/mL. For the same molecule, the MIC (Escherichia coli; isolate # 14 (canine wound)) was greater than 8 µg/mL, the MIC (Escherichia coli; isolate # 15 (canine wound)) was greater than 8 µg/mL and the MIC (Escherichia coli; isolate # 16 (canine wound)) was greater than 8 µg/mL. For the same molecule, the MIC (Escherichia coli; isolate # 17 (canine wound)) was greater than 8 µg/mL, the MIC (Escherichia coli; isolate # 18 (canine wound)) was greater than 8 µg/mL and the MIC (Escherichia coli; isolate # 19 (canine wound)) was greater than 8 µg/mL. For the same molecule, the MIC (Escherichia coli; isolate # 20 (canine wound)) was greater than 8 µg/mL and the “Known range (MIC)” value [6] was “.03 to .12 µg/mL”.
